Patent publication US12448369B2 (Edgewise Therapeutics, Inc., priority 2023, dated 2025)

target: T1, Porcine ventricle myofibrils (ventricular myosin ATPase) (Sus scrofa, UniProt P79293); assay: Myofibril ATPase assay, porcine ventricle myofibrils; type: biochemical, porcine (Yucatan minipigs); settings: Y75 value (no ‡ mark); porcine ventricle myofibrils
T1 construct: Myofibrils from porcine cardiac muscle was isolated from the left ventricle of Yucatan minipigs; tissue Exemplar Genetics; host or cells: left ventricle of Yucatan minipigs, myofibrils prepared in house
In short: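 Read-out: A340 kinetic, NADH consumption coupled to ADP via PK-LDH, 75 min. Yucatan minipig LV myofibrils, pCa buffer (PIPES/CaCl2/EGTA, pH 7.0). Linear-regression slope (mAU/min), vehicle = 100%, 4PL fit; Y75 or Y125 reported.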

T1 sequence (P79293 whole entry): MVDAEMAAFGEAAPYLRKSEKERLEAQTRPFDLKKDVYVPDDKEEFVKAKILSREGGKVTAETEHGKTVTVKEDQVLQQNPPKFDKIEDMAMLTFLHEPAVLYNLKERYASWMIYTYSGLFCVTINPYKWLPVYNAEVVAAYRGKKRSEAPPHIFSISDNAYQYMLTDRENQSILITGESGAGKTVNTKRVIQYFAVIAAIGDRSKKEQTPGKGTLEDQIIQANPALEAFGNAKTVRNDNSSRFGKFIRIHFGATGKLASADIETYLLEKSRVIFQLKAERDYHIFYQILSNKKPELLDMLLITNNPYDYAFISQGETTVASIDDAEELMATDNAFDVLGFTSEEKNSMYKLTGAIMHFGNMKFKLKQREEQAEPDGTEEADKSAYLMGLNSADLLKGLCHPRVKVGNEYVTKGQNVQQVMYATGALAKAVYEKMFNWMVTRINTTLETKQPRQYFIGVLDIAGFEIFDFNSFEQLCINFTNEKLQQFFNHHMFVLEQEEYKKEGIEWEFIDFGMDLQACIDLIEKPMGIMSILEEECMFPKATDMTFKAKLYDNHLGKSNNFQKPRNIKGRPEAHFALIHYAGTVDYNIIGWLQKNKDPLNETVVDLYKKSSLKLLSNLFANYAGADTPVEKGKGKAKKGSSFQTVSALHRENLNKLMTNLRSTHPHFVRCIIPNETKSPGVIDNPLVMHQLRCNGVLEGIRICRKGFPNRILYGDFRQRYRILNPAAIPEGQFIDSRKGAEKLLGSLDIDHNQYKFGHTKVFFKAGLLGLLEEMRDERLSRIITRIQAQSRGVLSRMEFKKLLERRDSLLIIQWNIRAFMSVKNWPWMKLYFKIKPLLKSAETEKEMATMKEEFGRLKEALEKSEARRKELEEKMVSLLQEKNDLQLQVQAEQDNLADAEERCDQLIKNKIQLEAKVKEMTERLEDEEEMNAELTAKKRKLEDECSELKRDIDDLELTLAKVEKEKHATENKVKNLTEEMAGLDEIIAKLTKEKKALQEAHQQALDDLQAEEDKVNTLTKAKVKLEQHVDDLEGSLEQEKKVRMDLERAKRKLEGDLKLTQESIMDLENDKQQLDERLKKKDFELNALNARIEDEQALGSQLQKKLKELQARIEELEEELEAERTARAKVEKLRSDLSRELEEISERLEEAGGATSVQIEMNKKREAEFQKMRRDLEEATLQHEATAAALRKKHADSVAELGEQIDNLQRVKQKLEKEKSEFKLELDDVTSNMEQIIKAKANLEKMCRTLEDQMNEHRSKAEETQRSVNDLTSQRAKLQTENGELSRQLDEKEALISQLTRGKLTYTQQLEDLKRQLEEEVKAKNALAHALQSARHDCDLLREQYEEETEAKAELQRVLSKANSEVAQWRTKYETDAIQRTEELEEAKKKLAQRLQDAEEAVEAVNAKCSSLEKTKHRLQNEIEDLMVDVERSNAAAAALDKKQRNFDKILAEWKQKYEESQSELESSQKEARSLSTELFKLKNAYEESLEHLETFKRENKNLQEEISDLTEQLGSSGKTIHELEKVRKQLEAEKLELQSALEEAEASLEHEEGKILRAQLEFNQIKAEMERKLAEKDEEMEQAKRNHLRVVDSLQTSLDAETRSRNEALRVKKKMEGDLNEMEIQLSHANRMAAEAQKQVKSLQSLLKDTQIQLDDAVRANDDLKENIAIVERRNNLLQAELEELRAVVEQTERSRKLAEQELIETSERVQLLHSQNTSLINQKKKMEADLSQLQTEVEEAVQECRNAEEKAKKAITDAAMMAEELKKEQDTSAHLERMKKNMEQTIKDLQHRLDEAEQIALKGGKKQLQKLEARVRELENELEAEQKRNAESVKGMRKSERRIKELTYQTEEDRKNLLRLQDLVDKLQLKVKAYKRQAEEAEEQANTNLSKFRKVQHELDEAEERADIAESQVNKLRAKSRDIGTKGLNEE

SMILES	Ventricular EC25 [µM]
Cc1c(C(F)(F)C(=O)N[C@H](C)c2cc(C#N)ccn2)c(=O)[nH]c2ccc(F)c(F)c12 (single isomer, unassigned) [compound 2585]	7.05
Cc1c(C(F)(F)C(=O)N[C@@H](C)c2ncc(C#N)cn2)c(=O)[nH]c2cccc(C#N)c12 (single isomer, unassigned) [compound 4839]	1.85
Cc1c(C2(C(=O)N[C@H]3CCc4cc(C#N)cnc43)CC2)c(=O)[nH]c2ccc(F)c(F)c12 (single isomer, unassigned) [compound 4804]	100.00
Cc1c(F)ccc2[nH]c(=O)c(C(F)(F)C(=O)N[C@@H](C)c3ncc(C#N)cn3)c(C)c12 (single isomer, unassigned) [compound 4832]	0.58
CC(NC(=O)C(F)(F)c1cc2cc(F)ccc2[nH]c1=O)c1cc(C#N)ccn1 (single isomer, unassigned) [Compound 2573]	100.00

same assay, conditions: porcine ventricle myofibrils; Y75 value

SMILES	Ventricular EC25 [µM]
Cc1c(CC(=O)N[C@H](CO)c2ccc(C#N)cc2F)c(=O)[nH]c2ccc(C#N)nc12 [compound 220]	100.00
CCNc1nccc2[nH]c(=O)c(CC(=O)N[C@@H](C)c3ccc(F)cc3F)c(C)c12 [compound 351]	0.97
Cc1ccc([C@H](CO)NC(=O)Cc2c(C)c3c(C)nccc3[nH]c2=O)cc1 (single isomer, unassigned) [compound 336]	100.00
CC(C(=O)N[C@@H](C)c1ccc(F)cc1F)c1cc2c(I)nccc2[nH]c1=O (stereo partly drawn) [compound 362]	100.00
CCc1nccc2[nH]c(=O)c(CC(=O)N[C@@H](C)c3ccc(F)cc3F)cc12 [compound 437]	100.00
Cc1c(CC(=O)N[C@@H](C)c2ccc(F)cc2F)c(=O)[nH]c2ccnc(Cl)c12 [compound 402]	0.19
Cc1c([C@H](C)C(=O)N[C@@H](C)c2ccc(F)cc2F)c(=O)[nH]c2ccnc(OC(F)(F)F)c12 (single isomer, unassigned) [compound 348]	6.44
C[C@H](NC(=O)Cc1c(C(F)(F)F)c2ncccc2[nH]c1=O)c1ccc(F)cc1F [compound 417]	9.50
Cc1nccc2[nH]c(=O)c(CC(=O)N[C@H](CO)c3ncc(F)cc3F)c(C)c12 (single isomer, unassigned) [compound 303]	100.00
Cc1nccc2[nH]c(=O)c(CC(=O)N[C@@H](C)c3cccnc3)c(C)c12 (single isomer, unassigned) [compound 323]	100.00
Cc1nccc2[nH]c(=O)c(CC(=O)N[C@H](C)c3ccc(C#N)cc3F)c(C#N)c12 [compound 153]	100.00
Cc1c(CC(=O)N[C@H](C)c2ccc(S(C)(=O)=O)cc2F)c(=O)[nH]c2ccnc(C#N)c12 (single isomer, unassigned) [compound 214]	100.00
Cc1nccc2[nH]c(=O)c(CC(=O)N[C@H]3COc4cc(F)cc(F)c43)c(C)c12 (single isomer, unassigned) [compound 289]	100.00
Cc1c(CC(=O)N[C@@H](C)c2ccc(F)cc2F)c(=O)[nH]c2ccc(C#N)nc12 [compound 281]	5.52

test system: Porcine atria myofibrils (atrial myosin ATPase); assay: Myofibril ATPase assay, porcine atria myofibrils; type: biochemical; settings: Y75 value (no ‡ mark); porcine atria myofibrils
In short: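 Porcine atrial myofibrils were tested in a PK/LDH-coupled system where ADP from myosin ATPase drives NADH oxidation. Absorbance at 340 nm was read every 1.5-2 min for 75 min and slopes were normalized to vehicle wells. A 4-parameter logistic fit gave Y75 (25% inhibition) or Y125 (activation) concentrations.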

SMILES	Atrial EC25 [µM]
Cc1c(C(F)(F)C(=O)N[C@H](C)c2cc(C#N)ccn2)c(=O)[nH]c2ccc(F)c(F)c12 (single isomer, unassigned) [compound 2585]	1.59
Cc1c(C(F)(F)C(=O)N[C@@H](C)c2ncc(C#N)cn2)c(=O)[nH]c2cccc(C#N)c12 (single isomer, unassigned) [compound 4839]	1.67
Cc1c(C2(C(=O)N[C@H]3CCc4cc(C#N)cnc43)CC2)c(=O)[nH]c2ccc(F)c(F)c12 (single isomer, unassigned) [compound 4804]	4.71
Cc1c(F)ccc2[nH]c(=O)c(C(F)(F)C(=O)N[C@@H](C)c3ncc(C#N)cn3)c(C)c12 (single isomer, unassigned) [compound 4832]	0.12
CC(NC(=O)C(F)(F)c1cc2cc(F)ccc2[nH]c1=O)c1cc(C#N)ccn1 (single isomer, unassigned) [Compound 2573]	100.00

same assay, conditions: porcine atria myofibrils; Y75 value (75% activity relative to no compound)

SMILES	Atrial EC25 [µM]
Cc1c(CC(=O)N[C@H](CO)c2ccc(C#N)cc2F)c(=O)[nH]c2ccc(C#N)nc12 [compound 220]	100.00
CCNc1nccc2[nH]c(=O)c(CC(=O)N[C@@H](C)c3ccc(F)cc3F)c(C)c12 [compound 351]	0.14
Cc1ccc([C@H](CO)NC(=O)Cc2c(C)c3c(C)nccc3[nH]c2=O)cc1 (single isomer, unassigned) [compound 336]	69.32
CC(C(=O)N[C@@H](C)c1ccc(F)cc1F)c1cc2c(I)nccc2[nH]c1=O (stereo partly drawn) [compound 362]	9.38
CCc1nccc2[nH]c(=O)c(CC(=O)N[C@@H](C)c3ccc(F)cc3F)cc12 [compound 437]	91.43
Cc1c(CC(=O)N[C@@H](C)c2ccc(F)cc2F)c(=O)[nH]c2ccnc(Cl)c12 [compound 402]	0.04
Cc1c([C@H](C)C(=O)N[C@@H](C)c2ccc(F)cc2F)c(=O)[nH]c2ccnc(OC(F)(F)F)c12 (single isomer, unassigned) [compound 348]	0.34
C[C@H](NC(=O)Cc1c(C(F)(F)F)c2ncccc2[nH]c1=O)c1ccc(F)cc1F [compound 417]	9.70
Cc1nccc2[nH]c(=O)c(CC(=O)N[C@H](CO)c3ncc(F)cc3F)c(C)c12 (single isomer, unassigned) [compound 303]	100.00
Cc1nccc2[nH]c(=O)c(CC(=O)N[C@@H](C)c3cccnc3)c(C)c12 (single isomer, unassigned) [compound 323]	100.00
Cc1nccc2[nH]c(=O)c(CC(=O)N[C@H](C)c3ccc(C#N)cc3F)c(C#N)c12 [compound 153]	19.40
Cc1c(CC(=O)N[C@H](C)c2ccc(S(C)(=O)=O)cc2F)c(=O)[nH]c2ccnc(C#N)c12 (single isomer, unassigned) [compound 214]	100.00
Cc1nccc2[nH]c(=O)c(CC(=O)N[C@H]3COc4cc(F)cc(F)c43)c(C)c12 (single isomer, unassigned) [compound 289]	28.00
Cc1c(CC(=O)N[C@@H](C)c2ccc(F)cc2F)c(=O)[nH]c2ccc(C#N)nc12 [compound 281]	0.27

test system: Rabbit Psoas myofibrils (skeletal myosin ATPase); assay: Myofibril ATPase assay, rabbit psoas (skeletal) myofibrils; type: biochemical; settings: Y75 value (no ‡ mark); rabbit psoas myofibrils
In short: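 ATPase activity of Triton-washed myofibrils was measured by PK/LDH coupling, following NADH loss at 340 nm every 1.5–2 min for 75 min in PIPES/Ca/EGTA buffer at pH 7.0. Slopes, normalized to vehicle (100%), were fitted to a 4-parameter logistic model. Values are Y75 (25% inhibition) or Y125 (activators).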

SMILES	Skeletal EC25 [µM]
Cc1c(C(F)(F)C(=O)N[C@H](C)c2cc(C#N)ccn2)c(=O)[nH]c2ccc(F)c(F)c12 (single isomer, unassigned) [compound 2585]	3.04
Cc1c(C(F)(F)C(=O)N[C@@H](C)c2ncc(C#N)cn2)c(=O)[nH]c2cccc(C#N)c12 (single isomer, unassigned) [compound 4839]	0.13
Cc1c(C2(C(=O)N[C@H]3CCc4cc(C#N)cnc43)CC2)c(=O)[nH]c2ccc(F)c(F)c12 (single isomer, unassigned) [compound 4804]	100.00
Cc1c(F)ccc2[nH]c(=O)c(C(F)(F)C(=O)N[C@@H](C)c3ncc(C#N)cn3)c(C)c12 (single isomer, unassigned) [compound 4832]	0.17
CC(NC(=O)C(F)(F)c1cc2cc(F)ccc2[nH]c1=O)c1cc(C#N)ccn1 (single isomer, unassigned) [Compound 2573]	100.00

same assay, conditions: rabbit psoas myofibrils; Y75 value

SMILES	Skeletal EC25 [µM]
Cc1c(CC(=O)N[C@H](CO)c2ccc(C#N)cc2F)c(=O)[nH]c2ccc(C#N)nc12 [compound 220]	100.00
CCNc1nccc2[nH]c(=O)c(CC(=O)N[C@@H](C)c3ccc(F)cc3F)c(C)c12 [compound 351]	0.06
Cc1ccc([C@H](CO)NC(=O)Cc2c(C)c3c(C)nccc3[nH]c2=O)cc1 (single isomer, unassigned) [compound 336]	100.00
CC(C(=O)N[C@@H](C)c1ccc(F)cc1F)c1cc2c(I)nccc2[nH]c1=O (stereo partly drawn) [compound 362]	0.40
CCc1nccc2[nH]c(=O)c(CC(=O)N[C@@H](C)c3ccc(F)cc3F)cc12 [compound 437]	1.28
Cc1c(CC(=O)N[C@@H](C)c2ccc(F)cc2F)c(=O)[nH]c2ccnc(Cl)c12 [compound 402]	0.02
Cc1c([C@H](C)C(=O)N[C@@H](C)c2ccc(F)cc2F)c(=O)[nH]c2ccnc(OC(F)(F)F)c12 (single isomer, unassigned) [compound 348]	0.51
C[C@H](NC(=O)Cc1c(C(F)(F)F)c2ncccc2[nH]c1=O)c1ccc(F)cc1F [compound 417]	0.17
Cc1nccc2[nH]c(=O)c(CC(=O)N[C@H](CO)c3ncc(F)cc3F)c(C)c12 (single isomer, unassigned) [compound 303]	40.83
Cc1nccc2[nH]c(=O)c(CC(=O)N[C@@H](C)c3cccnc3)c(C)c12 (single isomer, unassigned) [compound 323]	100.00
Cc1nccc2[nH]c(=O)c(CC(=O)N[C@H](C)c3ccc(C#N)cc3F)c(C#N)c12 [compound 153]	3.09
Cc1c(CC(=O)N[C@H](C)c2ccc(S(C)(=O)=O)cc2F)c(=O)[nH]c2ccnc(C#N)c12 (single isomer, unassigned) [compound 214]	23.30
Cc1nccc2[nH]c(=O)c(CC(=O)N[C@H]3COc4cc(F)cc(F)c43)c(C)c12 (single isomer, unassigned) [compound 289]	2.54
Cc1c(CC(=O)N[C@@H](C)c2ccc(F)cc2F)c(=O)[nH]c2ccc(C#N)nc12 [compound 281]	0.34
